Test results: PMC8596589 (Chembiochem : a European journal of chemical biology, 2021)
Entries after “also recorded” stand apart in the source; their conditions may differ.

Columns and labels:
[1] = target: T1, Dop (Mycolicibacterium smegmatis, UniProt A0QZ49); assay: biochemical; assay type: biochemical, M. smegmatis
T1 sequence (A0QZ49 1-498): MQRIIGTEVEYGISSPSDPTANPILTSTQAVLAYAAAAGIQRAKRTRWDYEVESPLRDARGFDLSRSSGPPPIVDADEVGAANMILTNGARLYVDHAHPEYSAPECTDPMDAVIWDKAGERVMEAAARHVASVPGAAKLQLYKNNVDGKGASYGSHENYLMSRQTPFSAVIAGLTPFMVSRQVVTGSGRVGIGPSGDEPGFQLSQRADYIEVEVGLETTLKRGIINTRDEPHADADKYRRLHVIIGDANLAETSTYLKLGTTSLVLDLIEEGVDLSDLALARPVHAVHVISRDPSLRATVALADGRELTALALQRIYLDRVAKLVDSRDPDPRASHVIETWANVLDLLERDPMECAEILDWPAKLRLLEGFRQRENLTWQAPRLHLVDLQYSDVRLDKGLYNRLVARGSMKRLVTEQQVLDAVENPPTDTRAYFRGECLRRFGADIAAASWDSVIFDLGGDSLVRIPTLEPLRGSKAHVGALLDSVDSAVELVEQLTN

[2] = target: T1, Dop; assay type: biochemical, M. smegmatis; conditions: 100 μM inhibitor; 10 nM Dop; 250 nM FabD-Pup; 30 min
[3] = target: T2, PafA (Mycobacterium tuberculosis, UniProt P9WNU7); assay type: biochemical, Mtb; conditions: 100 μM inhibitor; 50 nM PafA; 2 hours
T2 sequence (P9WNU7 1-452): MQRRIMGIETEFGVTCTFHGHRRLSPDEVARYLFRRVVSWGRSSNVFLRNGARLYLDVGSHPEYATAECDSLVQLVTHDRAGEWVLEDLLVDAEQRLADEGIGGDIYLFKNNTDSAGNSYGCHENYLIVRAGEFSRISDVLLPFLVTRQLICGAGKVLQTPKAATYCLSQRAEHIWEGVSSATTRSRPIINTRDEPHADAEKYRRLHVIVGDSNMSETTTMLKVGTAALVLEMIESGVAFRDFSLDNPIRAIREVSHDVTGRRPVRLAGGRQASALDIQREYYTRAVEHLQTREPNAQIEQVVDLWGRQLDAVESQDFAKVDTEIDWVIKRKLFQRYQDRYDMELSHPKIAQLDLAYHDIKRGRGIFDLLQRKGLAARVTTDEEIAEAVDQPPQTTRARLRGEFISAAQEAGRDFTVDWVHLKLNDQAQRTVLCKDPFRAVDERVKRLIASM

[4] = target: T2, PafA; assay type: biochemical, Mtb; conditions: 100 µM inhibitor; 250 nM FabD; 50 nM PafA; six hours
[5] = target: T2, PafA; assay type: biochemical, Mtb; conditions: 100 µM compound; 50 nM PafA; 2 hours
[6] = target: T1, Dop; assay: ATP competition assay / KM of ATP for Dop; assay type: biochemical, M. smegmatis
[7] = target: T1, Dop; assay: Jump-dilution assay; assay type: biochemical, M. smegmatis

| Structure (SMILES) | IC50 [1] | Inhibition of depupylation of FabD-Pup by PafA [3] | Inhibition of pupylation of FabD by PafA (ligase activity) [4] | further results |
| --- | --- | --- | --- | --- |
| N#C/C(=C\c1ccccc1)C(=O)c1ccccc1 [Compound 5b] | > 100 µM | – | – | – |
| COc1cc(/C=C(\C#N)C(=O)c2ccccc2)cc(I)c1O [Compound 5a] | 5.4 ± 0.5 µM | – | – | – |
| N#C/C(=C\c1ccc(O)c(O)c1)C(=O)c1ccc(O)c(O)c1 [Compound 2, Tyrphostin AG538] | – | completely inhibited; also recorded: fully inhibits; also recorded: efficiently inhibit | completely inhibited; also recorded: fully inhibits; also recorded: efficiently inhibit | Inhibition of depupylation of FabD-Pup by Dop [2]: failed to inhibit; also recorded: did not inhibit; also recorded: leaving Dop activity intact; Inhibition of depupylation of Ino1-Pup by PafA [5]: partially inhibited |
| COc1cc(/C=C(\C#N)C(=O)c2ccc(O)c(O)c2)cc(I)c1O [Compound 1, I-OMe-Tyrphostin AG538] | – | partly inhibited | partly inhibited | Inhibition of depupylation of FabD-Pup by Dop [2]: incompletely inhibited; Change of IC50 with ATP concentration ([6]; eight ATP concentrations, 0.1–6.4 mM): did not significantly increase; Dop activity after 100-fold dilution (jump-dilution) [7]: Complete restoration of Dop activity; Inhibition of depupylation of Ino1-Pup by PafA [5]: partially inhibited; IC50 at 10-fold increased Dop concentration (ratio test) [1]: 0.70 ± 0.03 μM; IC50 at routine Dop concentration (ratio test) ([1]; 30 nM Dop): 0.26 ± 0.06 µM |
| COc1cc(/C=C(\C#N)C(=O)c2ccc(O)c(O)c2)ccc1O [Compound 10a] | > 100 µM | – | – | – |
| Nc1ncnc2c1ncn2[C@@H]1O[C@H](COP(=O)(O)OP(=O)(O)OP(=O)(O)O)[C@@H](O)[C@H]1O [ATP] | – | – | – | Km ([6]; read-out: KM of ATP for Dop, Michaelis-Menten curve of Dop vs. [ATP]): 320 ± 30 µM |
| COc1cc(/C=C(\C#N)C(O)c2ccccc2)cc(I)c1O (stereo not shown) [Compound 13] | 57 µM | – | – | – |
| COc1cc(/C=C(\C#N)C(=O)c2ccc(O)c(O)c2)cc(Br)c1O [Compound 10i] | 2.7 ± 0.2 µM | partly inhibited | partly inhibited | – |
| COc1cc(CC(C#N)C(O)c2ccccc2)cc(I)c1O (stereo not shown) [Compound 14] | – | – | – | Dop inhibition in the fluorogenic assay (in words) ([1]; Pup(33–63)-Glu(AMC) substrate, highest conc. 100 µM): complete loss of activity |
| N#C/C(=C\c1cc(O)c(O)c(I)c1)C(=O)c1ccc(O)c(O)c1 [Compound 10k] | 0.29 ± 0.01 µM | completely inhibited | completely inhibited | Inhibition of depupylation of Ino1-Pup by PafA [5]: fully inhibited |
| COc1cc(/C=C/C(=O)c2ccccc2)cc(I)c1O [Compound 12] | 29 µM | – | – | Decrease in potency compared to 1 ([1]; ratio of IC50 values vs compound 1): 60 fold |
| COc1cc(/C=C(\C#N)C(=O)c2ccc(O)c(O)c2)cc([N+](=O)[O-])c1O [Compound 10b] | 4.1 ± 0.1 µM | – | – | – |
